Tests used:
[1] = test system: BMSC (primary human bone marrow mesenchymal stromal cells); experiment: absolute EC50 for viability; higher = less sensitive
[2] = test system: BMSC (primary human bone marrow mesenchymal stromal cells); experiment: drug sensitivity score (DSS); higher = more sensitive

Row | SMILES | absolute EC50 for viability [1] [µM] | drug sensitivity score [2]
1 | CCS(=O)(=O)Nc1ccc(Oc2ccc(F)cc2F)c(-c2cn(C)c(=O)c3[nH]ccc23)c1 [Mivebresib] | 2.71 | 13
2 | Cc1cc([C@@H](C)Nc2ccccc2C(=O)O)c2nc(N3CCOCC3)cc(=O)n2c1 [AZD-6482] | > 2.5 | 2.1
3 | S=c1[nH]cnc2nc[nH]c12 [Mercaptopurine] | > 10 | 11.1
4 | C[C@]1(O)C[C@@H](c2nc(-c3ccc4ccc(-c5ccccc5)nc4c3)c3c(N)nccn32)C1 [Linsitinib] | > 10 | 2.9
5 | O=C(Nc1ccncc1)C(=O)c1cn(Cc2ccc(Cl)cc2)c2ccccc12 [Indibulin] | > 10 | 0
6 | C1=N/C2=N/c3ccc(OCCN4CCCC4)c(c3)COC/C=C/COCc3cccc(c3)C(=C1)N2 [Pacritinib] | 3.67 | 4.7
7 | COc1cc2ncnc(Nc3cccc(Cl)c3F)c2cc1OC(=O)N1CCN(C)C[C@H]1C [AZD3759] | > 1 | 0
8 | CC[C@@H]1C(=O)OC[C@@H]1Cc1cncn1C [Pilocarpine] | > 40 | 0
9 | CC[C@@H]1C(=O)N(C)c2cnc(Nc3ccc(C(=O)NC4CCN(C)CC4)cc3OC)nc2N1C1CCCC1 [BI 2536] | > 1 | 1.9
10 | CC(=O)c1c(C)c2cnc(Nc3ccc(N4CCNCC4)cn3)nc2n(C2CCCC2)c1=O [Palbociclib] | > 10 | 2.3
11 | FC(F)c1nc2ccccc2n1-c1nc(N2CCOCC2)nc(N2CCOCC2)n1 [ZSTK474] | > 10 | 7.2
12 | COc1ccc(S(=O)(=O)Nc2cccnc2Nc2ccc(O)cc2)cc1 [ABT-751] | > 10 | 5.5
13 | C/C=C1\NC(=O)[C@H]2CSSCC/C=C/[C@H](CC(=O)N[C@H](C(C)C)C(=O)N2)OC(=O)[C@H](C(C)C)NC1=O [Romidepsin] | 0.0097 | 23.2
14 | Nc1nc(N)c2nc(-c3cccc(O)c3)c(-c3cccc(O)c3)nc2n1 [TG100-115] | > 10 | 2.5
15 | Nc1nc(NC2CC2)cc(-c2cccc(Cl)c2Cl)n1 [TH588] | > 25 | 0
16 | COc1cccc2c1C(=O)c1c(O)c3c(c(O)c1C2=O)C[C@@](O)(C(C)=O)C[C@@H]3O[C@H]1C[C@H](N)[C@H](O)[C@H](C)O1 [Daunorubicin] | 0.356 | 5.6
17 | N.N.[Cl][Pt][Cl] [Cisplatin] | 48.5 | 3.6
18 | NC1(c2ccc(-c3nc4ccn5c(=O)[nH]nc5c4cc3-c3ccccc3)cc2)CCC1 [MK-2206] | > 1 | 5.8
19 | CNC(=O)c1ccc(N2C(=S)N(c3cnc(C#N)c(C(F)(F)F)c3)C(=O)C23CCC3)cc1F [Apalutamide] | > 10 | 0

Row | SMILES | absolute EC50 for viability [1] [µM] | drug sensitivity score [2]
20 | CCN(CC)CCNC(=O)c1c(C)[nH]c(/C=C2\C(=O)Nc3ccc(-c4csc(-c5ccccc5)n4)cc32)c1C [Amcasertib] | 2.78 | 5.9
21 | COc1cc2/c(=N/c3ccc(Br)cc3F)nc[nH]c2cc1OCC1CCN(C)CC1 [Vandetanib] | > 1 | 2.5
22 | CC[C@H](NC(=O)[C@H](C)NC)C(=O)N1C[C@@H](O)C[C@H]1Cc1c(-c2[nH]c3cc(F)ccc3c2C[C@@H]2C[C@H](O)CN2C(=O)[C@H](CC)NC(=O)[C@H](C)NC)[nH]c2cc(F)ccc12 [Birinapant] | > 1 | 0
23 | Nc1ncnc2c1nc(N)n2[C@@H]1O[C@H](CO)[C@@H](O)[C@H]1O [8-amino-adenosine] | 0.803 | 21.5
24 | COC(=O)C[C@](O)(CCCC(C)(C)O)C(=O)O[C@@H]1C(OC)=C[C@]23CCCN2CCc2cc4c(cc2[C@H]13)OCO4 [Omacetaxine] | 0.219 | 18.6
25 | Nc1nc(OCc2cc(Br)cs2)c2[nH]cnc2n1 [Lomeguatrib] | > 10 | 0
26 | O=C(/C=C\n1cnc(-c2cc(C(F)(F)F)cc(C(F)(F)F)c2)n1)NNc1cnccn1 [Selinexor] | > 10 | 3.1
27 | Cc1c2oc3c(C)ccc(C(=O)N[C@@H]4C(=O)N[C@H](C(C)C)C(=O)N5CCC[C@H]5C(=O)N(C)CC(=O)N(C)[C@@H](C(C)C)C(=O)O[C@@H]4C)c3nc-2c(C(=O)N[C@@H]2C(=O)N[C@H](C(C)C)C(=O)N3CCC[C@H]3C(=O)N(C)CC(=O)N(C)[C@@H](C(C)C)C(=O)O[C@@H]2C)c(N)c1=O [Dactinomycin] | 0.0507 | 19
28 | Cc1nc(=O)c2cc(CN(C)c3ccc(C(=O)N[C@@H](CCC(=O)O)C(=O)O)s3)ccc2[nH]1 [Raltitrexed] | > 1 | 0
29 | Nc1ncnc2c1c(-c1cccc(OCc3ccccc3)c1)cn2C1CC(CN2CCC2)C1 (configuration not stated) [NVP-AEW541] | 6.04 | 4.5
30 | CNS(=O)(=O)Nc1nccc(Cc2c(C)c3ccc(Oc4ncccn4)cc3oc2=O)c1F | > 1 | 0
31 | Nc1ncnc2c1nc(Cl)n2[C@@H]1O[C@H](CO)[C@@H](O)[C@H]1O [8-chloro-adenosine] | 5.35 | 10.9
32 | Clc1ccccc1C(c1ccccc1)(c1ccccc1)n1cccn1 [TRAM-34] | > 1 | 0
33 | C=CC(=O)Nc1cccc(Nc2nc(Nc3ccc(OCCOC)cc3)ncc2F)c1 [Spebrutinib] | > 1 | 1.2
34 | COc1ccc(CCc2nc3cc(-c4c(C)noc4C)ccc3n2C[C@H](C)N2CCOCC2)cc1Cl [SGC-CBP30] | > 25 | 2.1
35 | CC(C)C(=O)Nc1ccc([N+](=O)[O-])c(C(F)(F)F)c1 [Flutamide] | > 10 | 0
36 | Cc1cc2c(C(C)C)c(O)c(O)c(C=O)c2c(O)c1-c1c(C)cc2c(C(C)C)c(O)c(O)c(C=O)c2c1O [AT 101] | 28.1 | 6.1
37 | CC(=O)O[C@]1(C(C)=O)CC[C@H]2[C@@H]3C=C(C)C4=CC(=O)CC[C@]4(C)[C@H]3CC[C@@]21C [Megestrol acetate] | > 10 | 0
38 | O=c1ncn2nc(Sc3ccc(F)cc3F)ccc2c1-c1c(Cl)cccc1Cl [Neflamapimod] | > 10 | 0.5

Row | SMILES | absolute EC50 for viability [1] [µM] | drug sensitivity score [2]
39 | CN1CCN(c2ccc(C(=O)Nc3n[nH]c4ccc(Cc5cc(F)cc(F)c5)cc34)c(NC3CCOCC3)c2)CC1 [Entrectinib] | > 1 | 0.8
40 | Cc1sc2c(c1C)C(c1ccc(Cl)cc1)=N[C@@H](CC(=O)Nc1ccc(OCCOCCOCCOCCNc3cccc4c3C(=O)N(C3CCC(=O)NC3=O)C4=O)cc1)c1nnc(C)n1-2 (some centres not stated) [ARV-825] | 0.036 | 10.1
41 | COc1cc2ncnc(Nc3ccc(F)c(Cl)c3)c2cc1OCCCN1CCOCC1 [Gefitinib] | > 10 | 3.4
42 | COc1cc2nccc(Oc3ccc(NC(=O)Nc4cc(C)on4)c(Cl)c3)c2cc1OC [Tivozanib] | > 10 | 7.6
43 | CC1(C)C(C(=O)Nc2ccc(S(=O)(=O)c3ccc(NC(=O)C4C(C)(C)C4(C)C)cc3)cc2)C1(C)C [BRD7116] | > 10 | 0
44 | Cc1c(F)cc(C(=O)NC2CC2)cc1-c1ccc(C(=O)NCC(C)(C)C)cn1 [Losmapimod] | > 10 | 0
45 | CC[C@H](C)C(=O)O[C@H]1C[C@H](O)C=C2C=C[C@H](C)[C@H](CC[C@@H](O)C[C@@H](O)CC(=O)O)[C@H]21 [Pravastatin] | > 10 | 0
46 | CN(C)CC#Cc1ccc(OCCCc2sc(N3CCc4cccc(C(=O)Nc5nc6ccccc6s5)c4C3)nc2C(=O)O)c(F)c1 | > 10 | 0
47 | C=CC(=O)Nc1cccc(Oc2nc(Nc3ccc(N4CCN(C)CC4)cc3)nc3ccsc23)c1 [Olmutinib] | > 1 | 0
48 | Cn1cc(-c2ccc(F)c(C(F)(F)F)c2)nc1C1CCN(c2ncnc3[nH]ncc23)CC1 | > 10 | 0
49 | COc1cc(CCc2cc(NC(=O)c3ccc(N4CC(C)NC(C)C4)cc3)n[nH]2)cc(OC)c1 (configuration not stated) [AZD4547] | > 1 | 1
50 | CS(=O)(=O)c1ccc(-c2cnc(N)c(C(=O)Nc3ccccc3)n2)cc1 [VE-821] | > 10 | 0
51 | Cc1cn(-c2cc(NC(=O)c3ccc(C)c(Nc4nccc(-c5cnccn5)n4)c3)cc(C(F)(F)F)c2)cn1 [Radotinib] | > 10 | 0
52 | Cc1nc(-c2cn3c(n2)-c2ccc(-c4cnn(C(C)(C)C(N)=O)c4)cc2OCC3)n(C(C)C)n1 [Taselisib] | > 1 | 8.9
53 | O=C(Nc1cccnc1)N1CCC(Cc2cccc(Oc3ccc(C(F)(F)F)cn3)c2)CC1 [PF-3845] | 9.93 | 0
54 | OC[C@H]1O[C@@H](n2cnc3c2N=CNC[C@H]3O)C[C@@H]1O [Pentostatin] | > 10 | 0.4
55 | CC[C@H](CO)Nc1nc(NCc2ccccc2)c2ncn(C(C)C)c2n1 [Seliciclib] | > 10 | 0
56 | CC(C)(C)NC(=O)[C@H]1CC[C@H]2[C@@H]3CC[C@H]4NC(=O)C=C[C@]4(C)[C@H]3CC[C@]12C [Finasteride] | > 10 | 0

Reference: the supplement of paper PMC9103864
